These results are taken from US20250163104A1, “MACROCYCLIC IMMUNOMODULATORS” (priority 2021, published 2025).

Where a SMILES comes first, the peptide text is derived from it. Bridges are numbered along the chain shown (N, C = ends). [ ]: non-standard residue; d: D form. The star is where a group is joined. Bip = N[C@@H](Cc1ccc(-c2ccccc2)cc1)C(=O)O; Phe(4-NH2) = Nc1ccc(C[C@H](N)C(=O)O)cc1; Phe(3-Me) = Cc1cccc(C[C@H](N)C(=O)O)c1; Cha = N[C@@H](CC1CCCCC1)C(=O)O; Cit = NC(=O)NCCC[C@H](N)C(=O)O; Carboxymethyl = O=C(O)C*; Orn = NCCC[C@H](N)C(=O)O; Dab = NCC[C@H](N)C(=O)O; Nva = CCC[C@H](N)C(=O)O; Dap = NC[C@H](N)C(=O)O; Propargyl = C#CC*

For this assay, the target named is T1, human PD-1 / PD-L1-Ig binding on Jurkat cell line over-expressing human PD-1 (Jurkat-PD-1) (Homo sapiens, UniProt Q15116).
T1 construct: expressed in transfected cells; host or cells: Jurkat
T1 sequence (Q15116 25-288): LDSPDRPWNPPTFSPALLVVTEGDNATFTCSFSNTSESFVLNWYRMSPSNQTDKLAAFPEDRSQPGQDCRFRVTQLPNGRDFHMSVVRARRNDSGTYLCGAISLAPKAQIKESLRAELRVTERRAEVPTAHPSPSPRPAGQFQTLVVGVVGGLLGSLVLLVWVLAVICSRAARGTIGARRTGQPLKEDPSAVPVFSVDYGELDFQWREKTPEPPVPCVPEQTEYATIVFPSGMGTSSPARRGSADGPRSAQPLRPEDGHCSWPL
The assay is described as follows: Jurkat-PD-1 Cell Binding High-Content Screening Assay (CBA). The assay is classed as cell-based. The conditions noted are these: Jurkat-PD-1 cells, PE-labeled PD-L1-Ig 20 nM final; read-out: Jurkat HPD1_PDL1 IC50. Put shortly: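 Read-out: high-content imaging of PE-tagged PD-L1-Ig bound to Jurkat cells overexpressing human PD-1, after fixation with 4% paraformaldehyde and Hoechst 33342 nuclear staining. Ligand was used at 20 nM final for 1 hour, after a 2 h compound exposure at 37° C in serum-containing DMEM.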

As to `C#CCOc1ccc(C[C@@H]2NC(=O)[C@H](Cc3cccc(C)c3)NC(=O)[C@H](CC(=O)O)NC(=O)[C@H](Cc3ccc(OCC(=O)O)cc3)NC(=O)[C@H](CCC)NC(=O)CSC[C@@H](C(=O)N[C@@H](CCN)C(N)=O)NC(=O)[C@H](CCC(=O)O)NC(=O)[C@H](C(C)C)NC(=O)[C@H](CC3CCCCC3)NC(=O)[C@H](CCN)NC(=O)[C@@H](CC(C)C)NC(=O)[C@H](CCCN)NC(=O)[C@H](Cc3ccc(OCC(=O)O)cc3)NC(=O)[C@H](Cc3ccc(-c4ccccc4)cc3)NC2=O)cc1` [Compound 1832] ({CH2CO}-[Nva]Y(Carboxymethyl)D[Phe(3-Me)]Y(Propargyl)[Bip]Y(Carboxymethyl)[Orn][dL][Dab][Cha]VEC[Dab]-NH2; thioether N-14), the IC50 was determined as 2.6 nM.

Take `CC(C)C[C@H]1NC(=O)[C@H](CCCN)NC(=O)[C@H](CCC(=O)O)NC(=O)[C@H](Cc2ccc(-c3ccccc3)cc2)NC(=O)[C@H](C(C)C)NC(=O)[C@H](Cc2ccccc2F)NC(=O)[C@H](CC(=O)O)NC(=O)[C@H](Cc2ccc(C#N)cc2)NC(=O)[C@H](CN)NC(=O)CSC[C@@H](C(=O)N[C@@H](C)C(N)=O)NC(=O)[C@H]([C@@H](C)O)NC(=O)[C@H](C(C)C)NC(=O)[C@H](CC2CCCCC2)NC(=O)[C@H](CCN)NC1=O` [Compound 2214]: the IC50 came out at 15.4 nM.

With `Cc1cccc(C[C@@H]2NC(=O)[C@H](CC(=O)O)NC(=O)[C@H](Cc3ccc(OCC(=O)O)cc3)NC(=O)[C@H](Cc3ccncc3)NC(=O)CSC[C@@H](C(=O)N[C@@H](C)C(N)=O)NC(=O)[C@H]([C@@H](C)O)NC(=O)[C@H](C(C)C)NC(=O)[C@H](CC3CCCCC3)NC(=O)[C@H](CCN)NC(=O)[C@@H](CC(C)C)NC(=O)[C@H](CCCN)NC(=O)[C@H](C(C)C)NC(=O)[C@H](Cc3ccc(-c4ccccc4)cc3)NC(=O)[C@H](C(C)C)NC2=O)c1` [Compound 1200], the IC50 amounted to 5.4 nM.

As for `Cc1cccc(C[C@@H]2NC(=O)[C@H](CC(=O)O)NC(=O)[C@H](Cc3ccc(C(=O)O)cc3)NC(=O)[C@H](Cc3ccc(OCC(=O)O)cc3)NC(=O)CSC[C@@H](C(=O)N[C@@H](C)C(N)=O)NC(=O)[C@H]([C@@H](C)O)NC(=O)[C@H](C(C)C)NC(=O)[C@H](CC3CCCCC3)NC(=O)[C@H](CCN)NC(=O)[C@@H](CC(C)C)NC(=O)[C@H](CCCN)NC(=O)[C@H](CCCN)NC(=O)[C@H](Cc3ccc(-c4ccccc4)cc3)NC(=O)[C@H](C(C)C)NC2=O)c1` [Compound 1414], the IC50 was 9.9 nM.

For the molecule `COc1cccc(C[C@@H]2NC(=O)[C@H](CC(=O)O)NC(=O)[C@H](Cc3ccc(OCC(=O)O)cc3)NC(=O)[C@H](Cc3ccc(OCC(=O)O)cc3)NC(=O)CSC[C@@H](C(=O)N[C@@H](C)C(N)=O)NC(=O)[C@H]([C@@H](C)O)NC(=O)[C@H](C(C)C)NC(=O)[C@H](CC3CCCCC3)NC(=O)[C@H](CCN)NC(=O)[C@@H](CC(C)C)NC(=O)[C@H](CCCN)NC(=O)[C@H](CCC(=O)O)NC(=O)[C@H](Cc3ccc(-c4ccccc4)cc3)NC(=O)[C@H](C(C)C)NC2=O)c1` [Compound 1504], the IC50 came to 5.2 nM.

Turning to `CC(C)C[C@H]1NC(=O)[C@H](CCCN)NC(=O)[C@H](CCCNC(N)=O)NC(=O)[C@H](Cc2ccc(-c3ccccc3)cc2)NC(=O)[C@H](C(C)C)NC(=O)[C@H](Cc2c[nH]c3ccccc23)NC(=O)[C@H](CC(=O)O)NC(=O)[C@H](Cc2ccc(N)cc2)NC(=O)[C@H](CN)NC(=O)CSC[C@@H](C(=O)N[C@@H](C)C(N)=O)NC(=O)[C@H]([C@@H](C)O)NC(=O)[C@H](C(C)C)NC(=O)[C@H](CC2CCCCC2)NC(=O)[C@H](CCN)NC1=O` [Compound 2105] ({CH2CO}-[Dap][Phe(4-NH2)]DWV[Bip][Cit][Orn][dL][Dab][Cha]VTCA-NH2; thioether N-14), the IC50 turned out to be 6.8 nM.
